In general, Kd refers to a measure of binding affinity in units of concentration.

The values below come from patent US7015306B2 (BioSynthema, Inc., priority 1999, dated 2006).

Where a SMILES comes first, the peptide text is derived from it. [ ]: non-standard residue; d: D form. The star is where a group is joined. ξ: configuration not given here. DTPA = O=C(O)CN(CCN(CC(=O)O)CC(=O)O)CCN(CC(=O)O)CC(=O)*; ξGly(4-Pip(1-amidino)) = N=C(N)N1CCC(C(N)C(=O)O)CC1; ξGly(piperidin-4-yl) = NC(C(=O)O)C1CCNCC1; mTyr = N[C@@H](Cc1cccc(O)c1)C(=O)O; Ala(cPr) = N[C@@H](CC1CC1)C(=O)O; tBuAla = CC(C)(C)C[C@H](N)C(=O)O; Tle = CC(C)(C)[C@H](N)C(=O)O

One series deals with neurotensin receptors (Homo sapiens, UniProt P30989). Description: Competitive binding assay on frozen tissue sections of receptor-positive human tumors vs radioiodinated native neurotensin. To be noted: Table 3. An excerpt:
Frozen tissue sections from receptor-positive human tumors were used in a competitive binding assay.

A short description of series [1]: In vitro serum stability assay (HPLC) of In-111 labeled peptide. The conditions noted are these: human serum, 37EC, 4 hours. It counts as in vitro ADME, human. A digest of the protocol:
(§1)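 The peptide was labeled with ^111InCl3 in sodium acetate/ascorbic acid buffer for 30 min at room temperature, then diluted in 5% ethanol/PBS. It was incubated at 37 °C in human serum or rat urine for set times. Filtered aliquots were analyzed by HPLC.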

Series [2] can be described thus: In vitro urine stability assay (HPLC) of In-111 labeled peptide. It counts as in vitro ADME. The conditions noted are these: rat urine, 37EC, 4 hours. A digest of the protocol: as §1
For series [3], the target named is T1, HT 29 colon adenocarcinoma cells (Homo sapiens, UniProt P30989).
T1 construct: host or cells: HT 29 colon adenocarcinoma cells (endogenous receptors)
T1 sequence (P30989 whole entry): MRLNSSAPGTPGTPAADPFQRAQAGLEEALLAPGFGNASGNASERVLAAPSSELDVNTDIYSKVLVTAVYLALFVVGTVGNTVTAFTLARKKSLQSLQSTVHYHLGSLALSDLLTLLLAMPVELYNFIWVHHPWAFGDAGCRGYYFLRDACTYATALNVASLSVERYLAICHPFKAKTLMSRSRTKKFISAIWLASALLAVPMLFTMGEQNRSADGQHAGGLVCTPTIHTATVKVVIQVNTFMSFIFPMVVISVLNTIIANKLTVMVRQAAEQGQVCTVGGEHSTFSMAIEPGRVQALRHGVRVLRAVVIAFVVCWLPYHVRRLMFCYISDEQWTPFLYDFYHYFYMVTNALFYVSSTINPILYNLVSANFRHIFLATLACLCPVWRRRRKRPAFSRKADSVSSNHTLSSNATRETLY
The conditions noted are these: Ψ(CH2NH) pseudo-peptide analogs; cited from earlier work.

Series [4] concerns the target human brain neurotensin membranes. The conditions noted are these: read-out: Kd for binding on human brain neurotensin membranes; cited from earlier work.
The target of series [5] is rat brain synaptic membranes. To be noted: read-out: Kd binding to rat brain synaptic membranes; cited from earlier work.

neurotensin receptors, sequence (P30989 whole entry): as above

Turning to `CC(C)(C)[C@H](NC(=O)[C@H](Cc1ccc(O)cc1)NC(=O)[C@@H]1CCCN1C(=O)[C@H](CCCNC(=N)N)NC(=O)C(NC(=O)[C@@H]1CCCN1C(=O)[C@@H](CCCCN)NC(=O)CN(CCN(CCN(CC(=O)O)CC(=O)O)CC(=O)O)CC(=O)O)C1CCN(C(=N)N)CC1)C(=O)N[C@@H](CC1CC1)C(=O)O` (stereo partly drawn) [DTPA-DLys-Pro-Gly(PipAm)-Arg-Pro-Tyr-tBuGly-Cpa-OH] ({DTPA}-[dK]P[ξGly(4-Pip(1-amidino))]RPY[Tle][Ala(cPr)]-OH), the Kd on neurotensin receptors came out at 290 nM. In series [1], the “% of peptide at 4 hours after incubation at 37EC, Serum” value (from here on “% of peptide at 4 hours … Serum”) was 88.1%. Besides, in series [2], the “% of peptide at 4 hours after incubation at 37EC, Urine” value (shortened to “% of peptide at 4 hours … Urine”) was determined as 73.6%.

`CC(C)(C)C[C@H](NC(=O)[C@@H](NC(=O)[C@H](Cc1ccc(O)cc1)NC(=O)[C@@H]1CCCN1C(=O)[C@H](CCCNC(=N)N)NC(=O)C(NC(=O)[C@@H]1CCCN1C(=O)[C@@H](CCCCN)NC(=O)CN(CCN(CCN(CC(=O)O)CC(=O)O)CC(=O)O)CC(=O)O)C1CCN(C(=N)N)CC1)C(C)(C)C)C(=O)O` (stereo partly drawn) [DTPA-DLys-Pro-Gly(PipAm)-Arg-Pro-Tyr-tBuGly-tBuAla-OH] ({DTPA}-[dK]P[ξGly(4-Pip(1-amidino))]RPY[Tle][tBuAla]-OH) gave a Kd at neurotensin receptors of 7.3 nM. Besides, the “% of peptide at 4 hours … Serum” value in series [1] is recorded as 89.2%. Also, the “% of peptide at 4 hours … Urine” value in series [2] stood at 72.3%.

The compound `CC(C)C[C@H](NC(=O)[C@@H](NC(=O)[C@H](Cc1cccc(O)c1)NC(=O)[C@@H]1CCCN1C(=O)[C@H](CCCNC(=N)N)NC(=O)C(NC(=O)[C@@H]1CCCN1C(=O)[C@@H](CCCCN)NC(=O)CN(CCN(CCN(CC(=O)O)CC(=O)O)CC(=O)O)CC(=O)O)C1CCN(C(=N)N)CC1)C(C)(C)C)C(=O)O` (stereo partly drawn) [DTPA-DLys-Pro-Gly(PipAm)-Arg-Pro-mTyr-tBuGly-Leu-OH] ({DTPA}-[dK]P[ξGly(4-Pip(1-amidino))]RP[mTyr][Tle]L-OH) registered a dissociation constant (Kd) at neurotensin receptors of 300 nM. Further, in series [1], the “% of peptide at 4 hours … Serum” value came out at 84.4%. Also, in series [2], the “% of peptide at 4 hours … Urine” value was found to be 57.8%.

As for `CC(C)C[C@H](NC(=O)[C@@H](NC(=O)[C@H](Cc1ccc(O)cc1)NC(=O)[C@@H]1CCCN1C(=O)C(NC(=O)C(NC(=O)[C@@H]1CCCN1C(=O)[C@@H](CCCCN)NC(=O)CN(CCN(CCN(CC(=O)O)CC(=O)O)CC(=O)O)CC(=O)O)C1CCN(C(=N)N)CC1)C1CCNCC1)C(C)(C)C)C(=O)O` (stereo partly drawn) [DTPA-DLys-Pro-Gly(PipAm)-PipGly-Pro-Tyr-tBuGly-Leu-OH] ({DTPA}-[dK]P[ξGly(4-Pip(1-amidino))][ξGly(piperidin-4-yl)]PY[Tle]L-OH), the Kd on neurotensin receptors came out at 140 nM. For the same compound, the “% of peptide at 4 hours … Serum” value in series [1] is reported as 91.6%. Also, the “% of peptide at 4 hours … Urine” value in series [2] is given as 79.7%.

Take “DTPA-Lys^8(Ψ-CH2NH)Arg^9-Pro-Tyr-Ile-Leu-OH ({DTPA}-KRPYIL-OH; also: reduced CH2NH bond between Lys and Arg) [DTPA-Lys^8-Ψ(CH2NH)-Arg^8-NT(8–13)]”: the Kd in series [3] is 13 nM.

For the compound DTPA-Lys^8-Ψ(CH2NH)-Lys^8-NT(8–13), the dissociation constant Kd in series [3] was 7.4 nM.

In the case of “monoiodo-125 derivative of natural neurotensin: monoiodo-125 derivative of natural neurotensin, radioiodo analog from the literature”, in series [4], the Kd is 0.26 nM.

Regarding “monoiodo-125-[Trp^11]-neurotensin (QLYENKPRRPWIL; Neurotensin monoiodo 125I label; UniProt P30990 151-163, looked up, variant Y11W)”, in series [5], the Kd is 0.1 nM.
